# Measured values as given in US9765075B2, “Substituted bridged urea analogs as sirtuin modulators” (GLAXOSMITHKLINE LLC, priority 2013, dated 2017).
# Positions count from the first letter of the chain named.
# Experiments:
# Assay in all cases: SIRT1 activation dose-response, OAcADPr assay with Ac-p53(W5) substrate
# Format in all cases: biochemical
# full-length hSIRT1 E230A = target: T1, full-length hSIRT1 E230A (Homo sapiens, UniProt Q96EB6, E230A); details: for EC50: hSIRT1 E230A, activation dose-response, Ac-p53(W5) substrate
# T1 construct: His6 (C); made in house
# T1 sequence (Q96EB6 1-747 E230A): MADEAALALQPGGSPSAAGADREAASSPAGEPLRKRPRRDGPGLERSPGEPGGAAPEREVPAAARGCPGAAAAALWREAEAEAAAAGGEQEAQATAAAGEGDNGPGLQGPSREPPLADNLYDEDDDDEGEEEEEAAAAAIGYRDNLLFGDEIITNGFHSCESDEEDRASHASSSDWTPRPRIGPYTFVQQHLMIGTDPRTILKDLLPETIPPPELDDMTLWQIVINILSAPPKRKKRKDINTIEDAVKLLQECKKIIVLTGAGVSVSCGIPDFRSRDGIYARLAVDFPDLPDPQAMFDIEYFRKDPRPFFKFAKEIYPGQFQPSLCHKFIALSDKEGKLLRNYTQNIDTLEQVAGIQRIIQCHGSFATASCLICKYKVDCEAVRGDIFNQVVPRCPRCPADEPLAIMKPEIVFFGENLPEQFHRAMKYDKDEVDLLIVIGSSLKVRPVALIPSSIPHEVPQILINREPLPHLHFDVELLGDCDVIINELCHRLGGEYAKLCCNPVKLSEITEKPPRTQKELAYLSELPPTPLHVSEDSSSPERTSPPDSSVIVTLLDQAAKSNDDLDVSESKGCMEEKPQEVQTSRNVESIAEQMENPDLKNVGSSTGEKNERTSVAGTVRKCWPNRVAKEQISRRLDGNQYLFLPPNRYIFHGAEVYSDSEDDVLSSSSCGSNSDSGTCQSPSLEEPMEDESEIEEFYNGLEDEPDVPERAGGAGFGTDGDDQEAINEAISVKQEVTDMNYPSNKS
# full-length hSIRT1 E230Q = target: T2, full-length hSIRT1 E230Q (Homo sapiens, UniProt Q96EB6, E230Q); details: for EC50: hSIRT1 E230Q, activation dose-response, Ac-p53(W5) substrate
# T2 construct: His6 (C); made in house
# T2 sequence (Q96EB6 1-747 E230Q): T1 sequence (Q96EB6 1-747 E230A) with A230Q
# full-length hSIRT1 Q222A = target: T3, full-length hSIRT1 Q222A (Homo sapiens, UniProt Q96EB6, Q222A); details: for EC50: hSIRT1 Q222A, activation dose-response, Ac-p53(W5) substrate
# T3 construct: The following point mutants of full-length hSIRT1 were generated; made in house
# T3 sequence (Q96EB6 1-747 Q222A): T1 sequence (Q96EB6 1-747 E230A) with Q222A, A230E
EC50 fold shift (mutant EC50/wild-type EC50) (full-length hSIRT1 E230A),RVmax fold shift = (wild-type RVmax−1)/(mutant RVmax−1) (full-length hSIRT1 E230A),EC50 (full-length hSIRT1 E230A) [nM],EC50 fold shift (mutant EC50/wild-type EC50) (full-length hSIRT1 E230Q),RVmax fold shift = (wild-type RVmax−1)/(mutant RVmax−1) (full-length hSIRT1 E230Q),EC50 (full-length hSIRT1 E230Q) [nM],EC50 fold shift (mutant EC50/wild-type EC50) (full-length hSIRT1 Q222A),RVmax fold shift = (wild-type RVmax−1)/(mutant RVmax−1) (full-length hSIRT1 Q222A),EC50 (full-length hSIRT1 Q222A) [nM],SMILES
1.19,3.58,2610,1.53,3.93,3360,0.91,0.98,2010,O=C(Nc1ccccn1)N1c2nc(-c3cccc(C(F)(F)F)c3)ccc2N2CC[C@H]1C2 [Example 7]
1.11,2.39,530,1.21,3.07,580,1.07,1.22,510,Cc1cnc2c(NC(=O)N3c4nc(-c5cccc(C(F)(F)F)c5)ccc4N4CC[C@H]3C4)cccc2n1 [Example 8]
